Source: the NIST ThermoML archive (doi:10.1021/je030196t)

Tests used:
[1] = xn = mol fraction of the nth substance listed; details: 101.3 kPa, Liquid
[2] = refractive index (Na D-line) (dimensionless); xn = mol fraction of the nth substance listed; details: 303.15 K, 101.3 kPa, Liquid
[3] = 101.3 kPa, Liquid
[4] = refractive index (Na D-line) (dimensionless); details: 303.15 K; 101.33 kPa; Liquid

O [water] + C1COCCO1
Details	mass density [kg/m3]
[1], 313.15 K, x1 = 1	992.3

Details	refractive index
[2], x1 = 1	1.3326

C1CCOC1 [tetrahydrofuran] + O
[1]
Details	mass density, 303.15 K [kg/m3]	mass density, 313.15 K [kg/m3]	mass density, 323.15 K [kg/m3]	viscosity, 303.15 K [mPa·s]	viscosity, 313.15 K [mPa·s]	viscosity, 323.15 K [mPa·s]
x2 = 0	876.6	865.65	854.3	0.463	0.4	0.372
x2 = 0.3081	894.98	884.04	872.9	0.574	0.519	0.34
x2 = 0.5004	912.11	901.53	890.7	0.793	0.668	0.578
x2 = 0.6319	927.1	916.82	901.63	1.001	0.833	0.698
x2 = 0.7276	941.82	931.96	921.9	1.208	0.98	0.807
x2 = 0.8002	955.23	945.99	936.5	1.344	1.061	0.868
x2 = 0.8573	966.73	958.34	949.3	1.384	1.084	0.871
x2 = 0.9034	977.2	969.74	962.2	1.341	1.021	0.829
x2 = 0.9413	984.94	–	972.7	1.226	0.92	0.74
x2 = 0.973	990.31	990.31	980.8	1.003	0.803	0.641

[2]
Details	refractive index
x2 = 0	1.4048
x2 = 0.3523	1.3994
x2 = 0.5503	1.3946
x2 = 0.6772	1.387
x2 = 0.7654	1.3786
x2 = 0.8304	1.3684
x2 = 0.8801	1.3613
x2 = 0.9195	1.3546
x2 = 0.9514	1.3405
x2 = 0.9778	1.3386

O [water] + C1CCOC1
[1], x1 = 1
Details	mass density [kg/m3]	viscosity [mPa·s]
303.15 K	–	0.754
313.15 K	991.91	0.624
323.15 K	985.7	0.544

Details	refractive index
[2], x1 = 1	1.3326

C1COCCO1 [1,4-dioxane]
[3]
Details	mass density [kg/m3]	viscosity [mPa·s]
303.15 K	1024.63	1.022
313.15 K	1013.3	0.871
323.15 K	1001.9	0.807

Details	refractive index
[4]	1.4181

C1CCOC1 [tetrahydrofuran]
[3]
Details	mass density [kg/m3]	viscosity [mPa·s]
303.15 K	876.6	0.463
313.15 K	865.65	0.4
323.15 K	854.3	0.372

Details	refractive index
[4]	1.4048

C1COCCO1 [1,4-dioxane] + O
mass density [kg/m3], [1]
Details	x2 = 0	x2 = 0.3523	x2 = 0.5503	x2 = 0.6772	x2 = 0.7654	x2 = 0.8304	x2 = 0.8801	x2 = 0.9195	x2 = 0.9514	x2 = 0.9778
303.15 K	1024.63	1029.1	1032.4	1033.83	1033.22	1030.5	1025.6	1019.51	1012.1	1004.1
313.15 K	1013.3	1018.5	1022.6	1024.7	1024.7	1022.7	1018.7	1013.4	1006.9	999.8
323.15 K	1001.9	1007.8	1012.5	1015.2	1015.9	1014.6	1011.4	1006.9	1001.3	994.9

[2]
Details	refractive index
x2 = 0	1.4181
x2 = 0.3523	1.4116
x2 = 0.5503	1.4046
x2 = 0.6772	1.3972
x2 = 0.7654	1.391
x2 = 0.8304	1.3865
x2 = 0.8801	1.3798
x2 = 0.9195	1.3698
x2 = 0.9514	1.3517
x2 = 0.9778	1.3417
